Eleven compounds from PubChem BioAssay (NCI) can be followed below.

Among the test systems are SK-MEL-28 melanoma; HCC-2998 colon; LOX IMVI melanoma; NCI-H460 lung; SF-268 CNS; SNB-75 CNS; HS 578T breast; CAKI-1 renal; NCI/ADR-RES ovarian.
Holding throughout (test): NCI anticancer screen, dose series, 48 h

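Test compounds were applied to cells in 96-well plates for 48 hours at 5 doses. GI50: concentration for 50% inhibition of growth. At the TGI there is no net growth.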

Regarding `Cc1cc(=O)[nH]c(NN2C(Cl)C(=O)C2c2cccc(Cl)c2)n1` (stereo not drawn), the TGI is greater than 100 µM in the assay on SK-MEL-28 melanoma; 98.9 µM with HCC-2998 colon; 32.8 µM with LOX IMVI melanoma; 43.2 µM in the assay on NCI-H460 lung; 98.1 µM in the assay on SF-268 CNS; 62.8 µM with SNB-75 CNS.

As for `COc1ccc2c(OCc3nnc4ccc(-c5ccccc5)nn34)ccnc2c1`, the GI50 with SK-MEL-28 melanoma, in the assay with HCC-2998 colon, with HS 578T breast, with CAKI-1 renal, with LOX IMVI melanoma and with NCI/ADR-RES ovarian was greater than 100 µM each time. In addition, the GI50 with SF-268 CNS and in the assay on SNB-75 CNS was greater than 100 µM each time. Also, the TGI in the assay on SK-MEL-28 melanoma, with HCC-2998 colon, with HS 578T breast, with CAKI-1 renal, in the assay with LOX IMVI melanoma and with NCI/ADR-RES ovarian was greater than 100 µM each time. Also, the TGI in the assay with SF-268 CNS and in the assay with SNB-75 CNS was greater than 100 µM throughout.

As for `Cc1nc2ccccc2c(/C=C/c2ccc(Cl)cc2)c1C(=O)/C=C/c1ccc(Cl)cc1`, the GI50 in the assay on SK-MEL-28 melanoma was 1.67 µM; in the assay with HCC-2998 colon, 1.53 µM; in the assay with HS 578T breast, 2.06 µM; in the assay on LOX IMVI melanoma, 1.22 µM; with NCI/ADR-RES ovarian it was 2.12 µM; with NCI-H460 lung, 1.41 µM. The TGI with SK-MEL-28 melanoma came out at 3.12 µM; in the assay with HCC-2998 colon, 3 µM; with HS 578T breast, 5.97 µM; in the assay with LOX IMVI melanoma, 2.55 µM; in the assay with NCI/ADR-RES ovarian, 6.15 µM; in the assay with NCI-H460 lung, 3.15 µM.

Regarding `CC(=O)[CH-]C(=O)c1ccccc1.CC(=O)[CH-]C(=O)c1ccccc1.C[C@]12CCC(=O)C=C1CC[C@@H]1C2CC[C@@]2(C)C1CC[C@]2(C)[O-].C[C@]12CCC(=O)C=C1CC[C@@H]1C2CC[C@@]2(C)C1CC[C@]2(C)[O-].Cl.[Ti+4]` (stereo partly drawn), the GI50 with SK-MEL-28 melanoma is 11.5 µM; with HCC-2998 colon, 17.3 µM; with CAKI-1 renal, 13.3 µM; in the assay with LOX IMVI melanoma it was 18.6 µM; in the assay with NCI-H460 lung, 16.4 µM; in the assay on SF-268 CNS, 20.7 µM. Moreover, the GI50 in the assay with SNB-75 CNS was 15.7 µM. Moreover, the TGI with SK-MEL-28 melanoma worked out at 43 µM; with HCC-2998 colon, 41.7 µM; with CAKI-1 renal, 38.4 µM; in the assay on LOX IMVI melanoma, 48.8 µM; with NCI-H460 lung, 49.9 µM; with SF-268 CNS, 75.2 µM. This compound also had a TGI with SNB-75 CNS of 43.7 µM.

As to `C(=C\N1CCCCC1)/c1nnnn1-c1ccccc1`, the TGI with SK-MEL-28 melanoma is greater than 100 µM; with HCC-2998 colon, greater than 100 µM; with HS 578T breast, 49.4 µM; in the assay on CAKI-1 renal, 38.2 µM; with LOX IMVI melanoma, 50.9 µM; with NCI/ADR-RES ovarian, 64.5 µM. Further, the results for the TGI in the assay with NCI-H460 lung, with SF-268 CNS and in the assay on SNB-75 CNS were greater than 100 µM, 84 µM and 69.7 µM, respectively.

With `CCN(CC)c1ccc2cc(C(=O)Nc3ccccn3)c(=N)oc2c1`, the TGI in the assay on SK-MEL-28 melanoma is greater than 100 µM; in the assay on HCC-2998 colon, greater than 100 µM; in the assay with HS 578T breast, 88.5 µM; with CAKI-1 renal it was greater than 100 µM; in the assay with LOX IMVI melanoma it was greater than 100 µM; in the assay with NCI/ADR-RES ovarian, greater than 100 µM. The TGI in the assay on NCI-H460 lung, with SF-268 CNS and in the assay on SNB-75 CNS was greater than 100 µM in each case.

Take `CC(=O)N(O)c1ccc(-c2nc3ccccc3s2)cc1`: the TGI with SK-MEL-28 melanoma, with HCC-2998 colon, with HS 578T breast, in the assay with CAKI-1 renal, with LOX IMVI melanoma and in the assay on NCI/ADR-RES ovarian was greater than 100 µM throughout. The TGI in the assay on NCI-H460 lung, in the assay on SF-268 CNS and in the assay on SNB-75 CNS was greater than 100 µM throughout.

For the compound `CCCC(CCN)(CCN)[N+](=O)[O-]`, the TGI with HS 578T breast, in the assay with CAKI-1 renal, in the assay with NCI/ADR-RES ovarian, in the assay on NCI-H460 lung, in the assay on SF-268 CNS and in the assay with SNB-75 CNS was greater than 100 µM in each case.

For the compound `COc1cccc(/C=N/[N-]C(N)=O)c1[O-].[Cu+2].[OH3+].c1ccc(-c2ccccn2)nc1`, the TGI in the assay on SK-MEL-28 melanoma is 41.2 µM; in the assay on HCC-2998 colon, greater than 100 µM; with CAKI-1 renal it was 83.7 µM; in the assay on LOX IMVI melanoma, greater than 81.3 µM; in the assay on NCI-H460 lung, greater than 100 µM; in the assay on SF-268 CNS, greater than 100 µM. This compound also registered a TGI in the assay with SNB-75 CNS of 33.9 µM.

With `COc1cccc(-c2cc(=O)c3ccccc3[nH]2)c1`, the TGI was greater than 100 µM in the assay on SK-MEL-28 melanoma; 18.1 µM with HCC-2998 colon; greater than 100 µM in the assay on LOX IMVI melanoma; greater than 100 µM with NCI-H460 lung; greater than 100 µM in the assay with SF-268 CNS; greater than 100 µM with SNB-75 CNS.

`CCOC(=O)N(c1ccccc1)N(CC)C(=O)/C(C)=N/Nc1ccc([N+](=O)[O-])cc1`: the TGI in the assay with SK-MEL-28 melanoma came to 31.1 µM; in the assay with HCC-2998 colon it was 32.5 µM; in the assay on SF-268 CNS, 34.1 µM; with SNB-75 CNS, 35.2 µM.
